From BindingDB's records for doi:10.1111/j.1471-4159.1989.tb07357.x (Albany Medical College, 1989) come the findings set out here.

Assay [1] addresses 5-hydroxytryptamine receptor 1E (Homo sapiens, UniProt P28566).
Assay [2] deals with 5-hydroxytryptamine 1D receptor (Bos taurus, UniProt Q8MI13).

Bounds are passed on as bounds.

Sequence of 5-hydroxytryptamine receptor 1E (P28566 whole entry): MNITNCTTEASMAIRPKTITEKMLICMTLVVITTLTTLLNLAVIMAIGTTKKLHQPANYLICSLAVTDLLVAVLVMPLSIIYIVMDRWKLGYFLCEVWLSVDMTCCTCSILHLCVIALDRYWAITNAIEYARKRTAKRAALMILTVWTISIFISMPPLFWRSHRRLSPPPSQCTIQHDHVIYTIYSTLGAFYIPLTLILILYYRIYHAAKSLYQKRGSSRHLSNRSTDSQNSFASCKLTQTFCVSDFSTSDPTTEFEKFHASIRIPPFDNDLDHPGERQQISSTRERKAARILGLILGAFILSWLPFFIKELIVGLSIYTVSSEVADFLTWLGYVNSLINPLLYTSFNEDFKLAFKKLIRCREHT
Sequence of 5-hydroxytryptamine 1D receptor (Q8MI13 whole entry): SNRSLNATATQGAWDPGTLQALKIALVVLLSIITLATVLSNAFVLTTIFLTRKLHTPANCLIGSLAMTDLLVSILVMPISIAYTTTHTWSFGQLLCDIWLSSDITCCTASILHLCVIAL

The Ki is a measure of affinity in units of concentration, obtained from inhibition or displacement. `CCCN(CCC)C1CCc2cccc(O)c2C1` (stereo not given): the Ki in assay [1] was found to be 826 nM; in assay [2], 200 nM.
As for `CN1C2CCC1CC(OC(=O)c1c[nH]c3ccccc13)C2` (stereo not given), the Ki in assay [1] and in assay [2] was > 10000 nM each time.
As to `CC[C@@H](CO)NC(=O)[C@@H]1C=C2c3cccc4c3c(cn4C)C[C@H]2N(C)C1`, the Ki in assay [1] was 59 nM; in assay [2] it was 8.8 nM.
For `COc1cc(CC(C)N)c(OC)cc1Br` (stereo not drawn) [2-(4-Bromo-2,5-dimethoxy-phenyl)-1-methyl-ethylamine((-)-DOB)] the same measures were 556 nM and 1000 nM.
Regarding `O=C(c1ccc(F)cc1)C1CCN(CCn2c(=O)[nH]c3ccccc3c2=O)CC1` [3-(2-{4-[(4-fluorophenyl)carbonyl]piperidin-1-yl}ethyl)-1,2,3,4-tetrahydroquinazoline-2,4-dione], the Ki in assay [1] was > 10000 nM; in assay [2], 3200 nM.
With `CN1C[C@H](C(=O)N[C@]2(C)O[C@@]3(O)[C@@H]4CCCN4C(=O)[C@H](Cc4ccccc4)N3C2=O)C=C2c3cccc4[nH]cc(c34)C[C@H]21` [12'-hydroxy-2'-methyl-5'alpha-(phenylmethyl)ergotaman-3',6',18-trione], the inhibition constant Ki in assay [1] amounted to 155 nM.
On to `FC(F)(F)c1cccc(N2CCNCC2)c1` [TFMPP], for which the Ki was determined as 570 nM in assay [1] and 150 nM in assay [2].
Take `NCCc1c[nH]c2ccc(O)cc12` [[3H]-5-HT]: in assay [2], affinity was put at a Ki of 1.9 nM.
For `NCCc1c[nH]c2ccc(C(N)=O)cc12` [[3H]-5-carboxamidotryptamine], the Ki in assay [1] worked out at 910 nM.
